Experimental data reported in patent US11878972B2, “Treatment of neurological disorders” (TORQUR AG, priority 2016, dated 2024).
Where two headings read alike, the source gives them in different places.

Key:
[1] = R6/2 pharmacokinetics (plasma, striatum, cerebellum, cortex); format: in vivo, mouse; conditions: R6/2 mice, single oral dose, one hour; Cpd. 3 75, 50, 25 mg/kg; Cpd. 8 25, 16, 8 mg/kg
Experimental: In order to test exposure of brain areas, R6/2 mice were treated with a single oral dose of Cpd. 3 (75 mg/kg, 50 mg/kg, 25 mg/kg) or Cpd. 8 (25 mg/kg, 16 mg/kg, 8 mg/kg), 3 animals per group. After one hour plasma was collected and animals were sacrificed. Striatum, cerebellum and cortex was separately snap frozen and analyzed for compound concentration using LC/MS/MS.

[2] = system: S6 phosphorylation (S235/236); assay: mTOR signaling in brain samples of pilocarpine pre-treated and naïve mice (western blot); format: in vivo, mouse; conditions: for decrease of S6 phosphorylation (S235/236) versus control: brain, 3 hours after single oral dose: Cpd. 3 40 mg/kg, Cpd. 8 25 mg/kg, everolimus 5 mg/kg
Experimental: A ramping-up dosing protocol was used which has the advantage that pilocarpine can be individually applied according to the susceptibility of each mouse. Pilocarpine (Sigma-Aldrich, Germany) was administered to female NMRI mice intraperitoneally at a dose of 100 mg/kg (Pilo-SE group). […] To reduce peripheral side effects of pilocarpine, methylscopolamine (Sigma-Aldrich, Germany) was administered 30 minutes prior to the first injection of pilocarpine. Animals were continuously monitored and duration of convulsive SE was registered [referred to Racine's scale. SE onset was defined as continuous ongoing seizure activity following occurrence of one or two generalized tonic-clonic seizures [stage 4 or 5 on the Racine scale]. SE was characterized by head nodding in an upright (sitting) body position, Straub tail, and slight to moderate convulsions of forelimbs, sometimes interrupted by further generalized tonic-clonic seizures. In order to reduce mortality, SE was terminated by diazepam (10 mg/kg i.p.; diazepam-ratiopharm 10, injection solution) 90 min after SE onset. […] In the sham-SE group mice were treated with the same treatment scheme as the pilo-SE group but pilocarpine was replaced by 0.9% sodium chloride solution. The mortality in the pilo-SE model in mice is relatively high (overall about 50%) and can vary markedly between experimental groups/days. Therefore we had to start with a large number of mice for SE induction in order to reliably obtain a group size of 20-22 animals for the MEST.
Brain samples from pilocarpine treated mice and untreated mice were snap frozen and tissue was lysed in buffer containing 25 mM Tris-HCl, pH 8, 50 mM NaCl, 0.5% (w/v) sodium deoxycholate (DOC), and 0.5% (w/v) Triton X-100 and supplemented with complete protease inhibitor (Roche, Mannheim, Germany) and Phosphostop (NEB, USA). Disruption of cell lysates was performed by drawing up the cell suspension twenty times into a syringe with a small gauge needle (21 G) on ice. Protein concentrations in the lysates were determined by using the Pierce BCA Protein Assay kit (Thermo Scientific, Bonn, Germany) according to the manufacturer's instructions. […] Membranes were incubated with primary antibodies anti S6 1:1000, anti S6 Phospho Serin (240/244) 1:1000, anti S6 Phospho Serin (235/236) 1:2000 (NEB) and anti-Actin 1:100 (Sigma-Aldrich) for 1 h in 2% milk in PBST at room temperature (RT) and washed three times for 10 min in PBS-T. Secondary antibodies anti-rabbit-HRP 1:1000 (Dako, Hamburg, Germany) were incubated for 1 h in 2% milk in PBST at RT and washed three times for 10 min in PBST. Proteins were detected by enhanced chemiluminescence using SuperSignal West Femto Chemiluminescent Substrate (Thermo Scientific) and the ChemiDoc system (Bio-Rad, Munich, Germany) with QuantityOne software (Bio-Rad) according to the manufacturer's protocol. Relative protein expressions were quantified densitometrically with QuantityOne (Bio-Rad) software and calculated by normalization to the reference signals of actin with GraphPad Prism software (GraphPad, San Diego, CA, USA).
Pilocarpine pre-treated and naïve mice were treated with a single oral dose of Cpd. 3 (40 mg/kg), Cpd. 8 (25 mg/kg), everolimus (5 mg/kg) or vehicle. 5 mice per group were utilized and sacrificed after 3 hours.

[3] = Maximal tolerated dose (MTD) / tolerability in BALB/c nude mice; format: in vivo; conditions: for MTD: female, BALB/c nude, mouse, in vivo, po
Experimental: In order to find a dose that could be used for further experiments and in order to show tolerability of compounds of the present invention, female BALB/c nude mice were treated with Cpd. 3 and Cpd. 8 by per oral (p.o.) gavage twice for five days with a two day dose holiday in between. Compounds were administered in the following vehicle: 20% Hydroxypropyl-β-cyclodextrin (HPBCD), 10% DMSO and 70% water. The major endpoint was to evaluate the body weight loss and animal survival. The body weights were recorded daily for the dosing days and at least twice weekly thereafter. The animal death was checked daily for survival. Animals were to be evaluated for 7 days post the final dose. The tolerated dose was defined as the dose that results in less than 20% mean body-weight loss, and no treatment related death during the study. The randomized block design was used to assign experimental animals to groups. First, the experimental animals were divided into homogeneous blocks according to their initial body weight. Secondly, within each block, randomization of experimental animals to treatments was conducted.
Animal supplier: Shanghai Lingchang Bio-Technology Co. Ltd (LC, Shanghai, China). Animal Certificate No.: 2013001803305. The mice were kept in individual ventilated cage (IVC) systems at constant temperature and humidity with 5 animals in each cage.
Diet: Mouse diet, C060 irradiation sterilized dry granule food. Animals had free access during the entire study period. Water: RO water, autoclaved before using. Animals had free access to sterile drinking water.
OVCAR-3 and SUDHL/6 tumor bearing BALB/c nude mice were treated with Cpd. 3, p.o. at 100 mg/kg for 21 or 15 consecutive days, respectively under the same conditions. Body weight of the mice was stable.

[4] = PK in B57BL/6J mice; conditions: for half-life: B57BL/6J, in vivo
Experimental: 8, 50 mg/kg was administered to B57BL/6J mice by gavage. Animals were housed in temperature controlled rooms with free access to food and water. Test items were weighed in a glass vial and dissolved first in DMSO. Tween 80 was added subsequently and finally, the formulation was completed with HPβCD 20%. […] Blood was collected in tubes containing K3-EDTA and stored on ice until centrifugation at 3000×g (10 min. 4° C.). The plasma supernatant was separated and kept at −20° C. until being assayed. Thigh muscle and brain of mice were snap frozen. The brain and muscle samples were homogenized in PBS using the Precellys 24/Dual homogeniser.
Samples were analyzed by LC-MS. Calibration standards were prepared by spiking 20 μl of drug free blank plasma with calibration solution. […] Samples were vigorously shaken and centrifuged for 10 minutes at 6000 g and 20° C. […] An aliquot was transferred to 200 μl sampler vials and subsequently subjected to LC-MS with an injection volume of 1.5 μl.

[5] = epileptic (pilocarpine pre-treated) mice

Row | Compound | Tissue concentrations reached [1] | decrease of S6 phosphorylation (S235/236) versus control [2, 5] [fold] | S6 phosphorylation / mTOR signaling in brain (FIG. 3B) ([2]; epileptic/pilocarpine pre-treated and naïve mice, single oral dose) | decrease of S6 phosphorylation (S235/236) versus control ([2]; naïve mice) [fold] | Body weight of the mice ([3]; OVCAR-3 and SUDHL/6 tumor bearing BALB/c nude mice, p.o. 100 mg/kg for 21 or 15 consecutive days) | MTD ([3]; BALB/c mice, p.o., twice for five days with a two day dose holiday, read-out: MTD) [mg/kg] | Brain AUC ([4]; mouse, po, 50 mg/kg, single) [µg·h/mL] | Brain Cmax ([4]; mouse, po, 50 mg/kg, single) [µg/g] | MTD [3] [mg/kg] | half-life ([4]; mouse, oral, 50 mg/kg, half-life, as stated in the discussion of the Tsc1 GFAP study) [min] | half-life ([4]; mouse, po, 50 mg/kg, half-life in mice (estimated), mice, single oral 50 mg/kg) [min] | oral bioavailability ([4]; mice, single oral 50 mg/kg)
1 | Nc1cc(C(F)F)c(-c2nc(N3C4CCC3COC4)nc(N3C4CCC3COC4)n2)cn1 [Compound 3, 5-(4-(3-oxa-8-azabicyclo[3.2.1]octan-8-yl)-6-(3-oxa-8-azabicyclo[3.2.1]octan-8-yl)-1,3,5-triazin-2-yl)-4-(difluoromethyl)pyridin-2-amine] | well in the efficacious range | 4.3 | significantly inhibited S6 phosphorylation in brain | 4.6 | stable | 100 | 30.6 | 7.7 |  |  |  | 
2 | C[C@H]1COCCN1c1nc(-c2cnc(N)cc2C(F)F)nc(N2CCOCC2)n1 [Compound 8, (S)-4-(difluoromethyl)-5-(4-(3-methylmorpholino)-6-morpholino-1,3,5-triazin-2-yl)pyridin-2-amine] | sufficient levels were reached at all concentrations | 2.8 |  | 10.9 |  |  |  |  | 25 | 300 | 282 to 288 | good oral bioavailability
